US8541449B2, “Substituted isoquinolines and isoquinolinones as Rho kinase inhibitors” (Sanofi, priority 2008, dated 2013)

Experiments:
Type in all cases: biochemical
[1] = target: T1, recombinant human PKG1-beta (Homo sapiens, UniProt Q13976); experiment: Determination of Protein Kinase G inhibition (Caliper peptide phosphorylation assay); details: recombinant human PKG1-beta versus ROCK II
T1 construct: Active recombinant human PKG1-beta (full-length, with N-terminal His-tag); His-tag (N); purchased Millipore GmbH, Schwalbach, Germany
T1 sequence (Q13976 1-686 isoform Q13976-2): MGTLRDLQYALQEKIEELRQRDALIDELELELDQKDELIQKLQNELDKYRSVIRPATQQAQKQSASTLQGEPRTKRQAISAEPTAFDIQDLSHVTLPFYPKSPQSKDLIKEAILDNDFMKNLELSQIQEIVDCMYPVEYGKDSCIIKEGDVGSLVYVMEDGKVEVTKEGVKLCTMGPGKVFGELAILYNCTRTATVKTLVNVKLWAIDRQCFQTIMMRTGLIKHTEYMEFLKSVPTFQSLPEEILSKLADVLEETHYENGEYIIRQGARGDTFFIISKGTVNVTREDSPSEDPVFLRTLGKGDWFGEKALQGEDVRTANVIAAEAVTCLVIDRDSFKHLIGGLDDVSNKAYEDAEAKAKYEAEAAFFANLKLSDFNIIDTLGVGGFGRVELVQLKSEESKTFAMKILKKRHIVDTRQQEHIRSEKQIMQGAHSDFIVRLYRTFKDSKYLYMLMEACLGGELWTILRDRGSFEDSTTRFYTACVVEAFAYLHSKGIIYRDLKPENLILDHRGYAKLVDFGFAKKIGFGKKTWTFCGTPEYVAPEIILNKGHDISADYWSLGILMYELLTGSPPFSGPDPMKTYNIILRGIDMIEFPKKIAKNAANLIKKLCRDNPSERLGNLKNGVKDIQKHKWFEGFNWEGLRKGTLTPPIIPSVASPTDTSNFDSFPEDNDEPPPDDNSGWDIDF
Outline: (§1)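 Full-length His-tagged PKG1-beta (150 ng/ml working) or His-tagged PKA residues 1-351 (30 ng/ml working) was mixed with compound in pH 7.4 Tris/MgCl2/DTT buffer. Fluorescein-peptide substrate and ATP (3 μM and 120 μM working) were then added for 60 min at 32 °C before an EDTA stop. Phosphopeptide was separated electrophoretically on a Caliper instrument to derive IC50.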

recombinant human PKA = target: T2, recombinant human PKA (Homo sapiens, UniProt P17612); experiment: Determination of Protein Kinase A inhibition (Caliper peptide phosphorylation assay); details: recombinant human PKA versus ROCK II
T2 construct: Active recombinant human PKA (residues 1-351, N-terminal His-tag); His-tag (N); purchased Invitrogen, Karlsruhe, Germany
Outline: as §1

[2] = target: T3, human recombinant ROCK II (Homo sapiens, UniProt O75116); experiment: Determination of Rho kinase inhibition (Caliper peptide phosphorylation assay); details: 60 min at 32° C., negative decadal logarithm of the IC50
T3 construct: N-terminal His6-tagged recombinant human ROCK-II residues 11-552; His6 (N); purchased Millipore GmbH, Schwalbach, Germany
Outline: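 His6-tagged human ROCK II (residues 11-552) phosphorylated a fluorescein-labelled peptide for 60 min at 32° C in Tris-HCl pH 7.4 with MgCl2, DTT and BSA, using 3 μM peptide and 120 μM ATP as diluted stocks. EDTA-stopped; phosphopeptide separated and detected by Caliper mobility shift; IC50 determined.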

T3 sequence (O75116 11-552): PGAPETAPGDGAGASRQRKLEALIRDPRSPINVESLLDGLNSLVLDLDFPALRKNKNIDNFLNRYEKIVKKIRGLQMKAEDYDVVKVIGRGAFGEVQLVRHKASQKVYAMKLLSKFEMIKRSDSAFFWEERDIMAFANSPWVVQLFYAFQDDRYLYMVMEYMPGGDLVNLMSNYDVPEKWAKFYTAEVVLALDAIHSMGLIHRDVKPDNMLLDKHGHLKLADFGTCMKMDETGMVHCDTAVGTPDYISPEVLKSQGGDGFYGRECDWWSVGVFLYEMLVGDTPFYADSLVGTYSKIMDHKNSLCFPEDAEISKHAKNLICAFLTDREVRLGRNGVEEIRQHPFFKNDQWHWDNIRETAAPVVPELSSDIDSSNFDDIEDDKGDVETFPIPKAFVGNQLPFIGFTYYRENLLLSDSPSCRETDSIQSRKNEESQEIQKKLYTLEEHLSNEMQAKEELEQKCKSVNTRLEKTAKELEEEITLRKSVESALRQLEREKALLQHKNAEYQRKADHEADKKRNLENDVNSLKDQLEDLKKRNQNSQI

Compound | Selectivity against PKG [1] | Selectivity against PKA (recombinant human PKA) | pIC50 [2] | IC50 [2]
CCC(N)[C@]1(c2cc(F)cc(F)c2)CC[C@H](Oc2cc3cc[nH]c(=O)c3cc2F)CC1 (stereo partly drawn) [Example 66] | >10 | >10 | +++++ (6.0≦pIC50<7.0) | –
CCC(N)[C@]1(c2ccc(C(C)C)cc2)CC[C@H](Oc2cc3cc[nH]c(=O)c3cc2Cl)CC1 (stereo partly drawn) [Example 27, cis-6-[4-(1-Amino-propyl)-4-(4-isopropyl-phenyl)-cyclohexyloxy]-7-chloro-2H-iso quinolin-1-one] | >10 | >100 | ++++++ (7.0≦pIC50<8.0) | –
cis-6-[4-(1- Amino-propyl)-4- (3-bromo- phenyl)-cyclo hexyloxy]-7- chloro-2H-iso quinolin-1-one [Example 29] | >1000 | >1000 | +++++++ (8.0≦pIC50) | –
CC(C)(N)[C@]1(c2ccc(F)cc2)CC[C@@H](Oc2cc3cc[nH]c(=O)c3cc2Cl)CC1 [Example 22, trans-6-[4-(1-Amino-1-methyl-ethyl)-4-(4-fluoro-phenyl)-cyclohexyloxy]-7-chloro-2H-iso quinolin-1-one] | >100 | >300 | ++++++ (7.0≦pIC50<8.0) | –
CC(N)(c1ccccc1)C1CCC(Oc2cc3cc[nH]c(=O)c3cc2Cl)CC1 (single isomer, unassigned) [Example 123, 6-{4-[1-Amino-1-phenyl-ethyl]-cyclohexyloxy}-7-chloro-2H-isoquinolin-1-one] | >10 | >100 | – | 0.01 to 0.1 µM
CCCC(N)[C@]1(c2ccc(F)cc2)CC[C@H](Oc2cc3cc[nH]c(=O)c3cc2Cl)CC1 (stereo partly drawn) [Example 5, cis-6-[4-(1-Amino-butyl)-4-(4-fluoro-phenyl)-cyclo-hexyloxy]-7-chloro-2H-isoquinolin-1-one] | >300 | >1000 | +++++++ (8.0≦pIC50) | –
CCC(N)[C@]1(c2ccccc2)CC[C@H](Oc2c(F)cc3c(=O)[nH]ccc3c2C)CC1 (stereo partly drawn) [Example 88, cis-6-[4-(1-Amino-propyl)-4-phenyl-cyclohexyloxy]-7-fluoro-5-methyl-2H-isoquinolin-1-one] | >10 | >10 | +++++ (6.0≦pIC50<7.0) | –
CCC(N)C1CCC(Oc2cc3cc[nH]c(=O)c3cc2Cl)CC1 (single isomer, unassigned) [Example 129, 6-[4-(1-Amino-propyl)-cyclohexyoxy]-7-chloro-2H-isoquinolin-1-one] | >10 | >100 | – | 0.01 to 0.1 µM
CCC(N)[C@]1(c2ccc(F)cc2)CC[C@H](Oc2cc3cc[nH]c(=O)c3cc2Cl)CC1 (stereo partly drawn) [Example 1, cis-6-[4-(1-Amino-propyl)-4-(4-fluoro-phenyl)-cyclohexyloxy]-7-chloro-2H-isoquinolin-1-one] | >1000 | >1000 | +++++++ (8.0≦pIC50) | –
CCC(N)[C@]1(c2ccc(C#N)cc2)CC[C@H](Oc2cc3cc[nH]c(=O)c3cc2Cl)CC1 (stereo partly drawn) [Example 97, cis-4-[1-(1-Amino-propyl)-4-(7-chloro-1-oxo-1,2-dihydro-isoquinolin-6-yloxy)-cyclohexyl]benzonitrile] | >300 | >1000 | +++++++ (8.0≦pIC50) | –
COc1ccc(C(N)[C@H]2CC[C@@H](Oc3cc4cc[nH]c(=O)c4cc3Cl)CC2)cc1 (single isomer, unassigned) [Example 36, 6-{4-[Amino-(4-methoxy-phenyl)-methyl]-cyclohexyloxy}-7-chloro-2H-isoquinolin-1-one] | >300 | >300 | – | 0.01 to 0.1 µM
CC(C)(N)[C@]1(c2ccc(F)cc2)CC[C@H](Oc2cc3cc[nH]c(=O)c3cc2Cl)CC1 [Example 77, cis-6-[4-(1-Amino-1-methyl-ethyl)-4-(4-fluoro-phenyl)-cyclohexyloxy]-7-chloro-2H-isoquinolin-1-one] | >300 | >1000 | +++++++ (8.0≦pIC50) | –
CCCC(N)[C@]1(c2ccc(F)cc2)CC[C@@H](Oc2cc3cc[nH]c(=O)c3cc2Cl)CC1 (stereo partly drawn) [Example 12, trans-6-[4-(1-Amino-butyl)-4-(4-fluoro-phenyl)-cyclohexyloxy]-7-chloro-2H-isoquinolin-1-one] | >10 | >100 | +++++ (6.0≦pIC50<7.0) | –
CCCC(C)(N)C1CCC(Oc2cc3cc[nH]c(=O)c3cc2Cl)CC1 (single isomer, unassigned) [Example 121, 6-{4-[1-Amino-1-n-propyl-ethyl]-cyclohexyloxy}-7-chloro-2H-isoquinolin-1-one] | >10 | >100 | – | 0.01 to 0.1 µM
NC(c1ccccc1)C1(c2ccccc2)CCC(Oc2cc3cc[nH]c(=O)c3cc2Cl)CC1 (single isomer, unassigned) [Example 42] | >300 | >300 | – | 0.01 to 0.1 µM
CCC(N)[C@]1(c2cccc(OC(F)(F)F)c2)CC[C@H](Oc2cc3cc[nH]c(=O)c3cc2C)CC1 (stereo partly drawn) [Example 85, cis-6-[4-(1-Amino-propyl)-4-(3-trifluoro-methoxy-phenyl)-cyclo-hexyloxy]-7-methyl-2H-iso quinolin-1-one] | >10 | >100 | +++++ (6.0≦pIC50<7.0) | –
NC(C1CC1)[C@]1(c2ccccc2)CC[C@H](Oc2cc3cc[nH]c(=O)c3cc2Cl)CC1 (stereo partly drawn) [Example 26] | >300 | >1000 | +++++++ (8.0≦pIC50) | –
CCC(N)[C@]1(c2ccccc2F)CC[C@H](Oc2cc3cc[nH]c(=O)c3cc2Cl)CC1 (stereo partly drawn) [Example 9, cis-6-[4-(1-Amino-propyl)-4-(2-fluoro-phenyl)-cyclohexyloxy]-7-chloro-2H-isoquinolin-1-one] | >100 | >1000 | +++++++ (8.0≦pIC50) | –
CC(C)C(N)[C@]1(c2ccccc2)CC[C@@H](Oc2cc3cc[nH]c(=O)c3cc2Cl)CC1 (stereo partly drawn) [Example 19, trans-6-[4-(1-Amino-2-methyl-propyl)-4-phenyl-cyclohexyloxy]-7-chloro-2H-iso quinolin-1-one] | >100 | >100 | +++++ (6.0≦pIC50<7.0) | –
CCC(N)(CC)C1CCC(Oc2cc3cc[nH]c(=O)c3cc2Cl)CC1 (single isomer, unassigned) [Example 122, 6-{-4-[1-Amino-1-ethyl-propyl]-cyclohexyloxy}-7-chloro-2H-isoquinolin-1-one] | >10 | >300 | – | 0.01 to 0.1 µM
CCC(N)[C@]1(c2ccccc2OC)CC[C@H](Oc2cc3cc[nH]c(=O)c3cc2Cl)CC1 (stereo partly drawn) [Example 69, cis-6-[4-(1-Amino-propyl)-4-(2-methoxy-phenyl)-cyclohexyloxy]-7-chloro-2H isoquinolin-1-one] | >300 | >1000 | +++++++ (8.0≦pIC50) | –
CCCC(N)[C@]1(c2ccccc2)CC[C@H](Oc2cc3cc[nH]c(=O)c3cc2Cl)CC1 (stereo partly drawn) [Example 4, cis-6-[4-(1-Amino-butyl)-4-phenyl-cyclohexyloxy]-7-chloro-2H-isoquinolin-1-one] | >100 | >1000 | +++++++ (8.0≦pIC50) | –
CCC(N)[C@]1(c2ccc(F)c(OC)c2)CC[C@H](Oc2cc3cc[nH]c(=O)c3cc2Cl)CC1 (stereo partly drawn) [Example 62, cis-6-[4-(1-Amino-propyl)-4-(4-fluoro-3-methoxy-phenyl)-cyclohexyloxy]-7-chloro-2H-iso quinolin-1-one] | >300 | >1000 | +++++++ (8.0≦pIC50) | –
